Results reported in patent US20240382626A1, “IRRADIATION AMENABLE LIPOSOMAL DYE AGGREGATES AND METHODS OF SYNTHESIS AND USE THEREOF” (Board of Regents, The University of Texas System, priority 2023, published 2024).
“Also recorded” adds a separate entry of the source.

Experiments:
[1] = Photostability during pulsed-laser photoacoustic imaging; type: physicochemical
Method: All photoacoustic imaging was performed using the VEVO LAZR-X and F2 Systems (FUJIFILM VisualSonics, Toronto, Canada). The system was calibrated per manufacturer instructions prior to all experiments. Equal concentrations of IcG, IcG-JA, and L-JA were loaded into the plastic tubes before coupling the imaging phantom to the transducer with ultrasound gel. For base characterization, a full spectral scan from 680 nm to 970 nm was performed. Photostability measurements were obtained by imaging at either 800 nm or 890 nm for 30 minutes. At five-minute intervals, which equated to nearly every 1400 pulses (˜280 pulses per minute), the scan was paused to allow for a full spectral scan to be performed. RAW data files from the system were exported and were analyzed using custom software written in MATLAB.

[2] = system: HUVECs; assay: MTS cytotoxicity assay; type: cell-based; conditions: 24 hr incubation, p<0.05
Method: The cytotoxicity of L-JA, IcG-JA, and IcG was evaluated on HUVECs and HEK-293T cell lines. The HUVECs were cultured in MCDB-131 medium supplemented with 10% (v/v) fetal bovine serum, 1% L-glutamine, 1% penicillin-streptomycin, and 1% endothelial cell growth supplement. The HEK-293T cells were cultured in Dulbecco's modified Eagle medium (DMEM) supplemented with 10% (v/v) fetal bovine serum and 1% penicillin-streptomycin. Both cell lines were incubated at 37° C. with 5% CO2 in a humidified atmosphere. The HUVEC and HEK-293T cells were seeded at the density of 10,000 cells per well and 5,000 cells per well in 96 well plates. After 24 hours, the culture media was replaced with fresh media containing L-JA, IcG-JA, and IcG at the concentration of 0.25 mM, 0.2 mM, 0.1 mM, and 0.05 mM. Cells incubated without particles were used as a control group. After 24 hours, the culture media was replaced with […] of fresh media. 20 μl of a mixture of [3-(4,5-dimethylthiazol-2-yl)-5-(3-carboxymethoxyphenyl)-2-(4-sulfophenyl)-2H-tetrazolium] (MTS) and phenazine ethosulfate (PES) was then added to each well. The cells were further incubated for 4 hours at 37° C. The absorbance signal at 490 nm was measured using a BioTek plate reader.

[3] = In vitro photothermal heating with 808 nm and 852 nm lasers; conditions: 808 nm laser
Text: To assess the heating capacity of IcG and L-JA solutions, two different laser setups were utilized. All laser components including diodes, mounts, fiber optic cables, lens, and adapters were acquired from ThorLabs (Thorlabs Inc., Newton, NJ, USA) Two different laser diodes, one 808 nm the other 852 nm, were mounted, aligned, and focused in view of a high-resolution IR camera and tracked using accompanying software (Teledyne FLIR, Wilsonville, OR, USA). The 852 nm laser system included an optical isolator (ThorLabs) in the light path as recommended by the manufacturer, but otherwise the systems were identical. Laser power was calibrated to 1 W/cm^2 for both lasers and across all experiments. All experiments were conducted in 24- or 96-well plates filled with corresponding contrast agent solutions placed at the focus of the laser and IR camera.

[4] = system: mouse kidney and surrounding tissue; assay: In vivo contrast enhancement and circulation by photoacoustic imaging; set-up: species or system mice; conditions: systemic administration
Text: Particle circulation was monitored by imaging the mouse kidney and surrounding tissue. The kidney is a high blood flow organ that has the distinct advantage of being easily and rapidly identifiable using ultrasound imaging. Simple setup and identification decreases the amount of time animals are under anesthesia and limits any potential artificial lowering of SO2 due to prolonged exposure to anesthetic agents. Once prepped, mice placed in the imaging system were imaged with power-doppler to confirm blood flow and baseline values for SO2 and contrast agent signals (FIG. 13). Following a bolus injection of a 5 mg/kg dose of contrast agent via the tail vein, the same region was monitored at varying time points. After processing with FUJIFILM VisualSonics' proprietary spectral unmixing software the images were analyzed using in-house MATLAB software. Power-doppler images guide the placement of ROIs around areas of high blood flow allowing isolation and calculation of SO2 and contrast agent signal over the course of imaging.
To assess their performance in vivo, particles were injected intravenously via the tail vein. Particle circulation was monitored by imaging the mouse kidney and surrounding tissue. […] Following a bolus injection of contrast agent via the tail vein, the same region was monitored at multiple time points. […]

Compound: CC1(C)C(/C=C/C=C/C=C/C=C2\N(CCCCS(=O)(=O)O)c3ccc4ccccc4c3C2(C)C)=[N+](CCCCS(=O)(=O)[O-])c2ccc3ccccc3c21 [IcG, Indocyanine Green]
- time until PA signal fully quenches ([1]; 800 nm laser pulses): 25 min
- photoacoustic signal drop ([1]; 800 nm laser pulses, just under 5 pulses per second, after just over 5 minutes / between 5 and 10 minutes): more than 50%
- photodegradation (in words) ([1]; 30 minutes of imaging at 800 nm): completely photodegraded
- concentration at which significant cytotoxicity relative to control occurs [2]: 200 µM
- behaviour on repeated (cyclic) laser heating (in words) [3]: can only be heated once
- clearance / circulation (in words) [4]: cleared from circulation within an hour; also recorded: fully cleared over the course of a few minutes
